Experimental data: US8729060B2, “Macrocyclic polyoxazole compounds and use thereof” (Rutgers, the State University of New Jersey, priority 2007, dated 2014)

Assays:
murine leukemia P388 = experiment: MTT assay (Test C), murine leukemia P388; format: cell-based; details: Mus musculus, 96 h, 4 days, read-out: cytotoxic activity IC50
Description: (§1) Test C. Evaluation of G-Quadruplex Stabilizers Using the MTT Assay.
(§2) Cell lines are selected based upon one or more factors including data on their relative telomerase activity, varied organ sites, available comparative data, and their ability to form solid tumors in athymic nude mice. The advantage of an MTT assay is that the cytotoxic/cytostatic activities can be readily determined. Cells are cultured for 4 days at 37° C. followed by addition of MTT (3-[4,5-dimethylthiozol-2-yl]-2,5-diphenyltetrazolium bromide (Sigma) (0.1 mg/ml). Cells are treated with MTT for 3 hrs and then dissolved in 100 μl 100% DMSO. Absorbance is measured at OD570 using a microplate reader (Model 3550 UV from BIO-RAD). The MTT value is normalized to OD570 of cells treated with Cellfectin alone. Stock solutions of each compound are prepared. MTT assays are performed using spectrometric analysis and 96 well plates. Compound 258, a representative compound of formula I, was evaluated against a variety of cell lines using the MTT assay compound.

[1] = test system: human lymphoblastoma RPMI 8402; experiment: MTT assay (Test C), human lymphoblastoma RPMI 8402; format: cell-based; details: 96 h, RPMI 8402, MTT, 4 days, read-out: cytotoxic activity IC50
Description: as §1, §2

[2] = test system: human nasopharyngeal carcinoma KB3-1; experiment: MTT assay (Test C), human nasopharyngeal carcinoma KB3-1; format: cell-based; details: KB 3-1, 96 h, KB3-1, MTT, 4 days, read-out: cytotoxic activity IC50
Description: as §1, §2

telomerase = details: read-out: telomerase inhibitory activity IC50; cited from earlier work
SK-N-AS = details: read-out: cytotoxicity IC50; cited from earlier work
LAN5 = details: read-out: cytotoxicity IC50; cited from earlier work
WAC2 = details: read-out: cytotoxicity IC50; cited from earlier work
LAN1 = details: read-out: cytotoxicity IC50; cited from earlier work
MiaPaCa = details: read-out: cytotoxicity IC50; cited from earlier work
K62 leukemia cells = details: cited from earlier work
[3] = test system: natural bone marrow CD34-positive cells; details: cited from earlier work
[4] = test system: human breast cancer cell lines HBC-4, BSY-1, HBC-5, MCF-7, and MDA-MB-231; details: range over HBC-4, BSY-1, HBC-5, MCF-7, MDA-MB-231; cited from earlier work

With `CC(C)[C@@H]1NC(=O)c2coc(n2)-c2coc(n2)-c2coc(n2)C/C=C/c2coc(n2)-c2coc(n2)-c2coc1n2` [Compound 258, Macrocyclic Hexaoxazole] as the compound, how does the IC50 (murine leukemia P388) read?
The IC50 was 45 nM.

And the IC50 [1]?
Its IC50 is 25 nM.

What about the IC50 [2] of the same compound?
Its IC50 is 25 nM.

And the melting point?
The melting point was 195 to 197 °C (dec.).

What does the source list for `Cc1oc2nc1-c1nc(co1)-c1nc(co1)-c1nc(co1)-c1nc(co1)-c1nc(co1)C1=NC(CS1)c1nc-2c(C)o1` (stereo not shown) [Telomestatin]?
IC50 (telomerase): 5 nM; IC50 (SK-N-AS): 800 nM; IC50 (LAN5): 2500 nM; IC50 (WAC2): 3200 nM; IC50 (LAN1): 4000 nM; IC50 (MiaPaCa): 500 nM; effect on plating efficiency (K62 leukemia cells): does suppress the plating efficiency; effect on BFU-E and CFU-GM [3]: much lesser effect

Which GI50 [4] does the source give for `CC[C@H](C)[C@@H]1NC(=O)c2nc(oc2-c2ccccc2)-c2csc(n2)-c2coc(n2)-c2coc(n2)-c2coc(n2)CNC(=O)[C@@H](C(C)C)NC1=O` [YM-216391] here?
Its GI50 is 15 to 33 nM.
